#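 Exposure lasted 48 hours, with cells grown in 96-well plates and compounds tested at five concentrations. The concentration for 50% growth inhibition is given as GI50.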 The source made the active and inactive calls. Rule as the data show it: active = GI50 up to about 1.1 µM and inactive = higher.
# Assays:
# Assay in all cases: DTP human tumour cell line panel, 48 h
# [1] = test system: OVCAR-8
# [2] = test system: UACC-62
# [3] = test system: SNB-78
# [4] = test system: SK-OV-3
# [5] = test system: NCI-H23
# [6] = test system: 786-0
# [7] = test system: RPMI-8226
# [8] = test system: M14
# [9] = test system: SW-620
# [10] = test system: OVCAR-3
# [11] = test system: K562
# [12] = test system: HCC 2998
# [13] = test system: M19-MEL
# [14] = test system: SNB-19
# [15] = test system: DMS-114
# [16] = test system: EKVX
# [17] = test system: HCT-15
# [18] = test system: CCRF-CEM
# [19] = test system: HOP-62
# [20] = test system: XF498
# [21] = test system: OVCAR-5
# [22] = test system: NCI-H460
# [23] = test system: HT-29
# [24] = test system: ACHN
# [25] = test system: CAKI-1
# [26] = test system: A498
# [27] = test system: SF-295
# [28] = test system: KM12
# [29] = test system: UACC-257
# [30] = test system: A549
# [31] = test system: SK-MEL-5
# [32] = test system: COLO 205
# [33] = test system: Malme-3M
# [34] = test system: SN12C
# [35] = test system: OVCAR-4
# [36] = test system: LXFL 529
# [37] = test system: KM-20L2
# [38] = test system: SK-MEL-2
# [39] = test system: MOLT-4
# [40] = test system: UO-31
# [41] = test system: SNB-75
# [42] = test system: NCI-H522
# [43] = test system: IGROV-1
# [44] = test system: TK-10
# [45] = test system: DLD-1
# [46] = test system: U-251
# [47] = test system: SF-268
# [48] = test system: SK-MEL-28
# [49] = test system: HCT-116
# [50] = test system: NCI-H226
# [51] = test system: SR
# [52] = test system: LOX IMVI
# [53] = test system: SF-539
# [54] = test system: DMS-273
# [55] = test system: HOP-92
# [56] = test system: HL-60
compound,measurement,setting,value
COc1ccc(C=C2C(=O)OC(C)(C)OC2=O)cc1OC,GI50,[1],> 100 µM (inactive)
same,GI50,[2],> 100 µM (inactive)
same,GI50,[3],> 100 µM (inactive)
same,GI50,[4],> 100 µM (inactive)
same,GI50,[5],> 100 µM (inactive)
same,GI50,[6],> 100 µM (inactive)
same,GI50,[7],> 100 µM (inactive)
same,GI50,[8],> 100 µM (inactive)
same,GI50,[9],> 100 µM (inactive)
same,GI50,[10],> 100 µM (inactive)
same,GI50,[11],> 100 µM (inactive)
same,GI50,[12],> 100 µM (inactive)
same,GI50,[13],> 100 µM (inactive)
same,GI50,[14],> 100 µM (inactive)
same,GI50,[15],> 100 µM (inactive)
same,GI50,[16],> 100 µM (inactive)
same,GI50,[17],> 100 µM
same,GI50,[18],> 100 µM (inactive)
same,GI50,[19],> 100 µM (inactive)
same,GI50,[20],> 100 µM (inactive)
same,GI50,[21],> 100 µM (inactive)
same,GI50,[22],> 100 µM (inactive)
same,GI50,[23],> 100 µM (inactive)
same,GI50,[24],> 100 µM (inactive)
same,GI50,[25],> 100 µM (inactive)
same,GI50,[26],> 100 µM (inactive)
same,GI50,[27],> 100 µM (inactive)
same,GI50,[28],> 100 µM (inactive)
same,GI50,[29],> 100 µM (inactive)
same,GI50,[30],> 100 µM (inactive)
same,GI50,[31],> 100 µM (inactive)
same,GI50,[32],> 100 µM (inactive)
same,GI50,[33],> 100 µM (inactive)
same,GI50,[34],> 100 µM (inactive)
same,GI50,[35],> 100 µM (inactive)
same,GI50,[36],> 100 µM (inactive)
same,GI50,[37],> 100 µM (inactive)
same,GI50,[38],> 100 µM (inactive)
same,GI50,[39],> 100 µM (inactive)
same,GI50,[40],> 100 µM (inactive)
same,GI50,[41],80.7 µM (inactive)
same,GI50,[42],> 100 µM (inactive)
same,GI50,[43],> 100 µM (inactive)
same,GI50,[44],> 100 µM (inactive)
same,GI50,[45],> 100 µM (inactive)
same,GI50,[46],> 100 µM (inactive)
same,GI50,[47],> 100 µM (inactive)
same,GI50,[48],> 100 µM (inactive)
N#Cc1nc(Nc2cccc3ccccc23)sc1N,GI50,[49],32.1 µM (inactive)
same,GI50,[1],31.4 µM (inactive)
same,GI50,[2],21.2 µM (inactive)
same,GI50,[3],13 µM (inactive)
same,GI50,[50],41.8 µM (inactive)
same,GI50,[4],38 µM (inactive)
same,GI50,[5],14 µM (inactive)
same,GI50,[6],33 µM (inactive)
same,GI50,[7],11.9 µM (inactive)
same,GI50,[8],39.9 µM (inactive)
same,GI50,[51],3.05 µM (inactive)
same,GI50,[9],41.2 µM (inactive)
same,GI50,[52],17.3 µM (inactive)
same,GI50,[10],44.6 µM (inactive)
same,GI50,[11],25.8 µM (inactive)
same,GI50,[53],23.2 µM (inactive)
same,GI50,[12],20.3 µM (inactive)
same,GI50,[13],28.5 µM (inactive)
same,GI50,[54],36.8 µM (inactive)
same,GI50,[14],38.8 µM (inactive)
same,GI50,[55],21.1 µM (inactive)
same,GI50,[17],29.5 µM
same,GI50,[19],33.3 µM (inactive)
same,GI50,[20],20.3 µM (inactive)
same,GI50,[21],68.9 µM (inactive)
same,GI50,[22],35 µM (inactive)
same,GI50,[23],41.1 µM (inactive)
same,GI50,[24],25.1 µM (inactive)
same,GI50,[25],28.7 µM (inactive)
same,GI50,[27],28.3 µM (inactive)
same,GI50,[28],30.2 µM (inactive)
same,GI50,[29],15.8 µM (inactive)
same,GI50,[30],26.5 µM (inactive)
same,GI50,[56],20.7 µM (inactive)
same,GI50,[32],24.6 µM (inactive)
same,GI50,[33],26.2 µM (inactive)
same,GI50,[34],14.1 µM (inactive)
same,GI50,[35],57.7 µM (inactive)
same,GI50,[36],29.9 µM (inactive)
same,GI50,[37],43.2 µM (inactive)
same,GI50,[38],28.5 µM (inactive)
same,GI50,[39],11.5 µM (inactive)
same,GI50,[40],12.9 µM (inactive)
same,GI50,[41],42.8 µM (inactive)
same,GI50,[42],15.9 µM (inactive)
same,GI50,[43],45.1 µM (inactive)
same,GI50,[44],40.6 µM (inactive)
same,GI50,[45],48.4 µM (inactive)
same,GI50,[46],22.2 µM (inactive)
same,GI50,[47],20.4 µM (inactive)
same,GI50,[48],37.9 µM (inactive)
